Measured values as given in patent US8592462B2, “Pirfenidone treatment for patients with atypical liver function” (Intermune, Inc., priority 2008, dated 2013).

What was measured:
[1] = Study of 345 idiopathic pulmonary fibrosis patients on pirfenidone 2403 mg/day: liver function test (AST/ALT) abnormalities and response to dosing regimen; type: in vivo; set-up: key to Grade of AST or ALT abnormality after dose modification / Grade of ALT after dose modification / Grade of liver function test at resolution: 0: WNL; 1: >ULN-2.5 × ULN; >2.5-5 × ULN; 3: >5-20 × ULN; 4: >20 × ULN
Experimental: Patients begin pirfenidone treatment by receiving escalating doses of pirfenidone over a period of 15 days until the full maintenance dose is reached. Specifically, from days 1 to 7, patients are administered one capsule of 267 mg pirfenidone three times per day. During days 8 to 14, patients receive two capsules of 267 mg pirfenidone three times per day. From day 15 onward, patients are treated with three capsules of 267 mg pirfenidone three times per day. Pirfenidone is administered orally, and each dose should be taken with food. If the patient is unable to eat, then the pirfenidone dose should be taken with milk or juice (excluding grapefruit juice).
Once the full maintenance dose is reached, pirfenidone is administered orally to patients three times per day to provide a daily dose of 2403 mg pirfenidone. Each of the three doses of 801 mg pirfenidone includes three capsules of 267 mg pirfenidone each. The contents of the pirfenidone 267 mg capsules are pirfenidone (82.15%); croscarmellose sodium (8.15%); microcrystalline cellulose (7.39%); povidine, USP, EP (1.85%); and magnesium stearate (0.46%).
Patients are treated with pirfenidone for up to 72 weeks. Some patients are treated longer than 72 weeks. At weeks 2, 4, 6, 12, and every 12 weeks (±2 weeks) thereafter during the treatment period, with the exception of week 72 and the treatment completion visit, patients are examined and histories are collected as detailed in the steps below.
4. Clinical laboratory tests are performed, including hematology, serum chemistries, pregnancy tests for women of childbearing capacity, and urinalysis with microscopic examination.
Patients were treated with pirfenidone in accordance with Example 1. […] As described in Example 1, serum chemistry tests were performed at scheduled intervals during the treatment period to monitor various parameters, including biomarkers of liver function such as alanine transaminase (ALT), aspartate transaminase (AST), bilirubin, alkaline phosphate (ALP), and gamma-glutamyl transferase (GGT).
The patient continued to receive the full target dose of 2403 mg/day. While receiving the full target dose, the patient was monitored for AST, ALT, and bilirubin levels.
In one patient, study drug dose was reduced to 1602 mg/day for the remainder of study participation (from Day 51 to Day 602), and the Grade 1 AST or ALT abnormality returned to Grade 0. For the second patient, study drug dose was reduced to 1602 mg/day and then increased to 2403 mg/day for remainder of study participation, and ALT returned to Grade 0. The third patient had study drug dose reduced to 801 mg/day, ultimately completing study at 1602 mg/day, at which time ALT returned to Grade 0. The remaining patients (46 patients) received no dose modification.

[2] = one year treatment, chronic pulmonary fibrosis; cited from earlier work
[3] = IPF patients, compassionate use; cited from earlier work
[4] = Gamma-glutamyl transferase observed in patients receiving pirfenidone; type: in vivo; conditions: some patients receiving pirfenidone
Source text: In some embodiments, the biomarker of liver function is alanine transaminase, aspartate transaminase, bilirubin, and/or alkaline phosphatase. […] In any of the embodiments described herein, biomarkers of liver function can exclude gamma-glutamyl transferase. In another embodiment, the abnormal level of alanine transaminase, aspartate transaminase, or alkaline phosphatase is greater than about 2.5-fold increased compared to the upper limit of normal (ULN). In a related embodiment, the abnormal level of alanine transaminase, aspartate transaminase, or alkaline phosphatase is greater than about 2.5- to about 5-fold increased compared to the upper limit of normal (ULN), i.e. a “liver function Grade 2 abnormality”. In some embodiments, the abnormal level of bilirubin is greater than about 1.5- to about 3-fold increased compared to the upper limit of normal (ULN), i.e., a “liver function Grade 2 abnormality”.

**Q.** For `Cc1ccc(=O)n(-c2ccccc2)c1` [pirfenidone, 5-methyl-1-phenyl-2-(1H)-pyridone], which “Grade of ALT after dose modification” value ([1]; Grade 1 patient, dose reduced to 801 mg/day, completing study at 1602 mg/day) is on record?
**A.** 0

**Q.** And the “Grade of AST or ALT abnormality after dose modification” value ([1]; Grade 1 patient, dose reduced to 1602 mg/day for remainder of study (Day 51 to Day 602))?
**A.** 0

**Q.** What about the “Grade of ALT after dose modification” value ([1]; Grade 1 patient, dose reduced to 1602 mg/day, then increased to 2403 mg/day for remainder of study) of the same compound?
**A.** 0

**Q.** And the “Grade of elevation at end of study” value ([1]; Grade 2 patient continued on 2403 mg/day, history of steatosis, Grade 1 before treatment, dose reduced for unrelated reasons (rash, diarrhea))?
**A.** 1 (>ULN-2.5 × ULN)

**Q.** And the “Grade of AST elevation at the last documented assessment” value ([1]; Grade 2 patient, no dose modification, Grade 1 AST and ALT at baseline)?
**A.** 1 (>ULN-2.5 × ULN)

**Q.** What about the “Grade of liver function test at resolution” value ([1]; Grade 2 patient, continued full daily dose of 2403 mg/day) of the same compound?
**A.** 0

**Q.** And the “transaminase levels after re-escalation” value ([1]; Grade 2 patient, treatment temporarily discontinued for acute cerebral artery occlusion, escalated back to 2403 mg/day)?
**A.** returned to normal

**Q.** What about the “Grade of abnormality at last documented values” ([1]; Grade 3 patient with Grade 1 at screening and/or baseline, discontinued for lung transplant) of the same compound?
**A.** 1 (>ULN-2.5 × ULN)

**Q.** And the “AST and ALT elevations at the last documented value” ([1]; Grade 3 patient with Grade 1 at screening and/or baseline, study drug interrupted, then discontinued)?
**A.** normalized

**Q.** What about the “patients developing a Grade 2 liver function test abnormality in AST and/or ALT levels” value ([1]; after pirfenidone 2403 mg/day) of the same compound?
**A.** Fifteen

**Q.** And the “patients developing Grade 3 liver function abnormality in AST and/or ALT levels” value ([1]; after pirfenidone administration)?
**A.** Four

**Q.** And the “patients exhibiting a Grade 1 elevation in AST or ALT levels after pirfenidone administration” value ([1]; of 345 IPF patients, 2403 mg/day, patients without a baseline liver function abnormality)?
**A.** 49 patients

**Q.** And the “patients with Grade 1 liver function test elevation having a treatment emergent adverse event of increased AST or ALT” value ([1]; of the 49 Grade 1 patients)?
**A.** three

**Q.** And the “patients with Grade 2 abnormality with reported treatment emergent adverse events of increased AST or ALT or hepatitis” value ([1]; of the fifteen Grade 2 patients)?
**A.** 12 patients

**Q.** And the “patients who discontinued study drug for elevated liver function tests” value ([1]; of the four Grade 3 patients)?
**A.** Two

**Q.** What about the “patients who discontinued treatment due to abnormal liver function tests in AST and/or ALT levels” value ([1]; of the twelve Grade 2 patients with adverse event, Grade 2 AST coincided with Grade 3 ALT) of the same compound?
**A.** One

**Q.** And the “outcome of rechallenge with the full dose” value ([1]; one of the seven Grade 2 patients with permanent dose reduction, rechallenged at 2403 mg/day)?
**A.** recurrence of Grade 2 elevation in ALT levels

**Q.** What about the “transaminases at study completion” value ([1]; seven Grade 2 patients with permanent dose reduction (3 at 801 mg/day, 4 at 1602 mg/day)) of the same compound?
**A.** resolution of transaminases, except for one patient that had a Grade 1 elevation at study completion

**Q.** What about the “liver enzymes at study completion” value ([1]; two Grade 2 patients, temporary dose reduction or discontinuation, rechallenged and escalated back to 2403 mg/day) of the same compound?
**A.** normal liver enzymes

**Q.** What about the “resolution of abnormalities after discontinuation” value ([1]; two Grade 3 patients who discontinued for elevated liver function tests, Grade 2 and Grade 3 last documented) of the same compound?
**A.** had not resolved

**Q.** What about the “liver dysfunctions, hematologic abnormalities, allergic or shock reactions during treatment” value [2] of the same compound?
**A.** no liver dysfunctions, hematologic abnormalities, or allergic or shock reactions

**Q.** And the “adverse events in hematology or blood chemistry” value [3]?
**A.** No adverse events in hematology or blood chemistry

**Q.** And the gamma-glutamyl transferase [4]?
**A.** Elevated gamma-glutamyl transferase has been observed in some patients receiving pirfenidone, without clinical liver impairment
